According to patent US10577350B2, “Crystalline forms of (R)-N-((4-methoxy-6-methyl-2-oxo-1,2-dihydropyridin-3-yl)methyl)-2-methyl-1-(1-(1-(2,2,2-trifluoroethyl)piperidin-4-yl)ethyl)-1H-indole-3-carboxamide” (Constellation Pharmaceuticals, Inc., priority 2015, dated 2020):

Tests used:
[1] = Aqueous solubility of solid forms (Table 2); format: physicochemical
[2] = Relative polymorph stability (statement); format: physicochemical; details: compared with the other forms
[3] = Pharmacokinetics in dog after oral suspension; format: in vivo; details: dogs (both genders), twice-daily oral; for Cmax / AUC(0-t): both sexes, dog, plasma, suspension in 0.5% methylcellulose; for AUC(0-t): read-out: AUC0-24 h
Method: Doses levels ranging from 50 mg/kg to 500 mg/kg were permitted to achieve pharmacological relevant systemic exposures.

[4] = DVS moisture sorption at 25° C.; format: physicochemical; details: for Post DVS changes: after DVS, PLM, XRD, DSC, TGA; for DVS final sample wt lower than starting wt: after one full sorption cycle
Method: Moisture sorption profiles were generated isothermally at 25° C. using a Hiden IGAsorp moisture sorption analyzer. Samples were dried on the instrument under inert nitrogen at 40° C. for 60 min. Following drying the samples moisture sorption was determined by performing one full cycle of weight measurements at 0, 10, 20, 30, 40, 50, 60, 70, 80, 90 and 95% RH, with exposure time at each humidity set point dependent upon a minimum of 99% confidence in the F1 fit model or 15 min, with a maximum timeout of 120 min. The moisture sorption isotherms were plotted as a function of weight change (relative weight % of the dried starting weight) and % RH.

[5] = Pharmacokinetics in rat after oral suspension; format: in vivo, rats; details: for Cmax / AUC(0-t): plasma; for AUC(0-t): read-out: AUC0-24 h
Text: Compound 365 was formulated similarly to Form C, suspension in 0.5% methylcellulose, 0.1% Tween 80 in purified water.

[6] = both sexes, rat, rats (both genders), once-daily oral, suspension in 0.5% methylcellulose, 0.1% Tween 80, 100 mg/kg/day
[7] = both sexes, rat, rats (both genders), once-daily oral, suspension in 0.5% methylcellulose, 0.1% Tween 80, 300 mg/kg/day
[8] = both sexes, rat, rats (both genders), once-daily oral, suspension in 0.5% methylcellulose, 0.1% Tween 80, 600 mg/kg/day
[9] = oral, rat, Table 8, formulated similarly to Form C (suspension in 0.5% methylcellulose, 0.1% Tween 80), 100 mg/kg/day
[10] = oral, rat, Table 8, formulated similarly to Form C (suspension in 0.5% methylcellulose, 0.1% Tween 80), 300 mg/kg/day

With `COc1cc(C)[nH]c(=O)c1CNC(=O)c1c(C)n([C@H](C)C2CCN(CC(F)(F)F)CC2)c2ccccc12` [Form C, (R)—N-((4-methoxy-6-methyl-2-oxo-1,2-dihydropyridin-3-yl)methyl)-2-methyl-1-(1-(1-(2,2,2-trifluoroethyl)piperidin-4-yl)ethyl)-1H-indole-3-carboxamide] the “Aqueous Solubility” value ([1]; pH 1.2) was “pH 1.2: ≥913 ug/mL”, the “Aqueous Solubility” value ([1]; pH 6.5) was “pH 6.5: 14 ug/mL” and the “Aqueous Solubility” value ([1]; pH 7.4) was “pH 7.4: 9 ug/mL”. The polymorph stability [2] was “the most stable polymorph”, the Cmax ([3]; 0.1% Tween 80, 50 mg/kg BID) was 6600 ng/mL and the AUC(0-t) ([3]; 0.1% Tween 80, 50 mg/kg BID) was 42200 ng·h/mL. The Cmax ([3]; 0.1% Tween 80, 150 mg/kg BID) was 21300 ng/mL, the AUC(0-t) ([3]; 0.1% Tween 80, 150 mg/kg BID) was 176000 ng·h/mL and the Cmax ([3]; 0.1% Tween 80, 500 mg/kg BID) was 34200 ng/mL. The AUC(0-t) ([3]; 0.1% Tween 80, 500 mg/kg BID) was 378000 ng·h/mL, the “systemic exposure AUC(0-24), dependence on dose” value ([3]; between 50 and 500 mg/kg BID) was “increased mostly dose-proportionally” and the DVS hygroscopicity ([4]; 25° C.) was “Non-”. For the same compound, the “Post DVS changes” value [4] was “No significant”, the DVS wt gain ([4]; at 95% RH, 25° C.) was ≤ 2.3% wt and the Cmax [5, 6] was 6140 ng/mL. The AUC(0-t) [5, 6] was 19600 ng·h/mL, the Cmax [5, 7] was 12800 ng/mL and the AUC(0-t) [5, 7] was 86400 ng·h/mL. For the same compound, the Cmax [5, 8] was 56800 ng/mL, the AUC(0-t) [5, 8] was 128000 ng·h/mL and the “systemic exposure AUC(0-24), dependence on dose” value ([5]; rats (both genders), once-daily oral, between 100 and 600 mg/kg) was “increased dose-proportionally”.

With `COc1cc(C)[nH]c(=O)c1CNC(=O)c1c(C)n([C@H](C)C2CCN(CC(F)(F)F)CC2)c2ccccc12` [Form B, (R)—N-((4-methoxy-6-methyl-2-oxo-1,2-dihydropyridin-3-yl)methyl)-2-methyl-1-(1-(1-(2,2,2-trifluoroethyl)piperidin-4-yl)ethyl)-1H-indole-3-carboxamide] the “Aqueous Solubility” value ([1]; pH 1.2) was “pH 1.2: ≥970 ug/mL”, the “Aqueous Solubility” value ([1]; pH 6.5) was “pH 6.5: 120 ug/mL” and the “Aqueous Solubility” value ([1]; pH 7.4) was “pH 7.4: 112 ug/mL”. For the same compound, the “Post DVS changes” value [4] was “No significant” and the DVS wt gain ([4]; at 95% RH, 25° C.) was 7.2% wt gain.

For `COc1cc(C)[nH]c(=O)c1CNC(=O)c1c(C)n([C@H](C)C2CCN(CC(F)(F)F)CC2)c2ccccc12` [Amorphous, (R)—N-((4-methoxy-6-methyl-2-oxo-1,2-dihydropyridin-3-yl)methyl)-2-methyl-1-(1-(1-(2,2,2-trifluoroethyl)piperidin-4-yl)ethyl)-1H-indole-3-carboxamide], the “Aqueous Solubility” value ([1]; pH 1.2) was “pH 1.2: ≥921 ug/mL”, the “Aqueous Solubility” value ([1]; pH 6.5) was “pH 6.5: 18 ug/mL” and the “Aqueous Solubility” value ([1]; pH 7.4) was “pH 7.4: 140 ug/mL”. The “Post DVS changes” value [4] was “Amorphous”, the “DVS final sample wt lower than starting wt” value [4] was “same wt ~1%” and the DVS wt gain ([4]; at 95% RH, 25° C.) was 7.4% wt gain. For the same compound, the Cmax [5, 9] was 7160 ng/mL, the AUC(0-t) [5, 9] was 24200 ng·h/mL and the Cmax [5, 10] was 9810 ng/mL. The AUC(0-t) [5, 10] was 78400 ng·h/mL and the “Cmax and AUC compared with Form C” value ([5]; rat, at both 100 and 300 mpk) was “slightly superior”.

In the case of `COc1cc(C)[nH]c(=O)c1CNC(=O)c1c(C)n([C@H](C)C2CCN(CC(F)(F)F)CC2)c2ccccc12` [Form A, (R)—N-((4-methoxy-6-methyl-2-oxo-1,2-dihydropyridin-3-yl)methyl)-2-methyl-1-(1-(1-(2,2,2-trifluoroethyl)piperidin-4-yl)ethyl)-1H-indole-3-carboxamide], the solubility ([1]; aqueous medium at pH 1.2 (buffer not named), pH 1.2, simulated gastric fluid, pH 1.2) is reported as ≥ 961 µg/mL, the “Aqueous Solubility” value ([1]; pH 6.5) is reported as “pH 6.5: 31 ug/mL” and the “Aqueous Solubility” value ([1]; pH 7.4) is reported as “pH 7.4: 28 ug/mL”. The “Post DVS changes” value [4] was 1% reduction, the “DVS final sample wt lower than starting wt” value [4] was “wt ~0.8 lower %” and the DVS wt gain ([4]; at 80% RH, 25° C.) was 2% wt gain at. The DVS wt gain ([4]; at 95% RH, 25° C.) was 5.3 wt gain at % wt.
